The values that follow come from PMC5050210, “BdorOBP83a-2 Mediates Responses of the Oriental Fruit Fly to Semiochemicals” (Frontiers in Physiology, 2016).

Experiment [1] deals with T1, BdorOBP56h (Bactrocera dorsalis, UniProt A0A0G2UMU0).
T1 construct: gene OBP56h; mature protein without signal peptide
T1 sequence (A0A0G2UMU0 20-136): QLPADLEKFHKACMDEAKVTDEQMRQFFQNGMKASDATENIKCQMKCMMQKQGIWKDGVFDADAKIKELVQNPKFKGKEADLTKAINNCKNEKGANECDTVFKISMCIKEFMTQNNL
Nature of the experiment: biochemical. Set-up: Fluorescence competitive displacement of 1-NPN from recombinant OBP, 25 °C, pH 7.4; competitor 5-50 uM. To be noted: 1-NPN displacement; for IC50: 2 uM protein, 2 uM 1-NPN, extrapolated, read-out: BdorOBP56 / IC50; for Kd: Kd from IC50, extrapolated, read-out: BdorOBP56 / Kd. Here is the method:
(§1) Fluorescence spectra were measured on an F-7000 FL Fluorescence Spectrophotometer (Hitachi) in a 10 mm light path quartz cuvette at 25°C. All were excited at 337 nm with emission and excitation slit of both 10 nm. The emission spectra were recorded between 350 and 500 nm. […] All measurements were performed in triplicates and mean values and standard errors are calculated. […] To determine the roles of specific OBPs in recognition of attractants in B. dorsalis, recombinant proteins of selected antenna-abundant OBPs and CSPs were obtained using a prokaryotic expression system (Figure 5). Purified OBPs and CSPs were used to determine binding affinity of each protein via fluorescence competitive binding assays. Thirteen pure attractant compounds were tested against each recombinant protein. […] Except for BdorCSP3 and BdorOBP84a-2, all remaining OBPs could bind to the tested compounds (Figure 6; Table S8). […] Alternatively they might be involved in functions other than odor detection. […] Overall, we observed lower binding affinity with our recombinant proteins and tested attractants. […] In other studies, much higher affinity has been reported. For example, competitive binding assays with a lepidopteran pheromone-binding protein can reach nearly 100% displacement (Hooper et al., [2009]; Gu et al., [2013]), and competitive binding assays with an aphid OBP (OBP7) can reach about 80% displacement with the alarm pheromone (E)-ss-farnesene (Sun et al., [2012]). The biological significance of the observed lower affinity with B. doralis OBPs here remains to be determined. It could be due to diverse binding mechanisms between different functional OBPs and the corresponding compounds. Alternatively, BdorOBP83a-2 may […] The sequences of BdorOBPs and BdorCSPs encoding mature proteins (without signal peptide) were amplified by PCR using specific primers carrying a restriction site EcoRI or XhoI (Table S2). PCR fragments were digested with both EcoRI and XhoI enzymes and the released DNA fragments were cloned into a PET-32a vector (Invitrogen), which were used to transform BL21 (DE3) E. coli competent cells (Invitrogen). A selected positive clone was grown overnight in 5 mL [compound left out] LB/ampicillin medium overnight at 37°C. Protein expression was induced with 1 mM IPTG for 3 h when the culture had reached an OD600-value of 0.7–0.9. Cells were then harvested by centrifugation and lysed by sonication. After sonication and centrifugation, most recombinant proteins were present in inclusion bodies. […] Renaturation of purified proteins were accomplished by gradient dilution at 4°C. His-tag was removed by digestion with recombinant enterokinase (Novagen) and the digested mixtures were passed through a HisTrap affinity column to remove any undigested protein. At each step during protein preparation and purification, protein extracts, and purified proteins were examined on 15% SDS-PAGE.

In experiment [2] the target is T2, BdorOBP84a-1 (Bactrocera dorsalis, UniProt A0A0G2UGI7).
T2 construct: gene OBP84a-1; mature protein without signal peptide
T2 sequence (A0A0G2UGI7 25-167): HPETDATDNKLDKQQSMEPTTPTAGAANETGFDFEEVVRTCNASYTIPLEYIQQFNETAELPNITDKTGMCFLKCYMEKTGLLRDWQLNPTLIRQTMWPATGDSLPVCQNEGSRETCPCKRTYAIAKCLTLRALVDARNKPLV
The experiment is described as follows: biochemical. Details: Fluorescence competitive displacement of 1-NPN from recombinant OBP, 25 °C, pH 7.4; competitor 5-50 uM. To be noted: 1-NPN displacement; for IC50: 2 uM protein, 2 uM 1-NPN, extrapolated; for Kd: Kd from IC50, extrapolated. The method, then:
as §1

For experiment [3], the target named is T3, BdorOBP83a-1 (Bactrocera dorsalis, UniProt A0A0G2UGI4).
T3 construct: gene OBP83a-1; mature protein without signal peptide
T3 sequence (A0A0G2UGI4 32-155): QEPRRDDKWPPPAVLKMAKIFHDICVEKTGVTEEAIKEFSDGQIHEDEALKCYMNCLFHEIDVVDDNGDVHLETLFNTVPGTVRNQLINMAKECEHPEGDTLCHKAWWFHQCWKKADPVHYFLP
The experiment is described as follows: biochemical. Set-up: Fluorescence competitive displacement of 1-NPN from recombinant OBP, 25 °C, pH 7.4; competitor 5-50 uM. As to conditions: 1-NPN displacement, Kd from IC50, extrapolated. The method, then:
as §1

Experiment [4] concerns the target T4, BdorOBP83a-2 (Bactrocera dorsalis, UniProt A0A0G2UEQ3).
T4 construct: gene OBP83a-2; mature protein without signal peptide
T4 sequence (A0A0G2UEQ3 24-148): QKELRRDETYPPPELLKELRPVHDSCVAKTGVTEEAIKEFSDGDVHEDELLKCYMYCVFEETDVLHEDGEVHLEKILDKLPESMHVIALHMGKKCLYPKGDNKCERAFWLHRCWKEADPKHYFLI
The experiment is described as follows: biochemical. Set-up: Fluorescence competitive displacement of 1-NPN from recombinant OBP, 25 °C, pH 7.4; competitor 5-50 uM. As to conditions: 1-NPN displacement, Kd from IC50. The method, then: as §1

Experiment [5] addresses T3, BdorOBP83a-1. Nature of the experiment: biochemical. Details: Fluorescence competitive displacement of 1-NPN from recombinant OBP, 25 °C, pH 7.4; competitor 5-50 uM. To be noted: 1-NPN displacement, 2 uM protein, 2 uM 1-NPN, extrapolated. Here is the method: (§2) Fluorescence spectra were measured on an F-7000 FL Fluorescence Spectrophotometer (Hitachi) in a 10 mm light path quartz cuvette at 25°C. […] The emission spectra were recorded between 350 and 500 nm. […] All measurements were performed in triplicates and mean values and standard errors are calculated. […] To determine the roles of specific OBPs in recognition of attractants in B. dorsalis, recombinant proteins of selected antenna-abundant OBPs and CSPs were obtained using a prokaryotic expression system (Figure 5). Purified OBPs and CSPs were used to determine binding affinity of each protein via fluorescence competitive binding assays. Thirteen pure attractant compounds were tested against each recombinant protein. […] PCR fragments were digested with both EcoRI and XhoI enzymes and the released DNA fragments were cloned into a PET-32a vector (Invitrogen), which were used to transform BL21 (DE3) E. coli competent cells (Invitrogen). […] LB/ampicillin medium overnight at 37°C. Protein expression was induced with 1 mM IPTG for 3 h when the culture had reached an OD600-value of 0.7–0.9. Cells were then harvested by centrifugation and lysed by sonication. […] Renaturation of purified proteins were accomplished by gradient dilution at 4°C. His-tag was removed by digestion with recombinant enterokinase (Novagen) and the digested mixtures were passed through a HisTrap affinity column to remove any undigested protein. At each step during protein preparation and purification, protein extracts, and purified proteins were examined on 15% SDS-PAGE.

Experiment [6] addresses T4, BdorOBP83a-2. Nature of the experiment: biochemical. Details: Fluorescence competitive displacement of 1-NPN from recombinant OBP, 25 °C, pH 7.4; competitor 5-50 uM. As to conditions: 1-NPN displacement, 2 uM protein, 2 uM 1-NPN. The method, then:
as §2

The target in experiment [7] is T2, BdorOBP84a-1. The experiment is described as follows: 1-NPN fluorescence competition. The experiment is classed as binding. As to conditions: 50 mM Tris-HCl pH 7.4, 25°C; 2 μM protein, 2 μM 1-NPN; competitive displacement. The text has this: 1-NPN fluorescence competition on BdorOBP84a-1 | all remaining OBPs could bind to the tested compounds
The target in experiment [8] is T3, BdorOBP83a-1. The experiment is described as follows: 1-NPN fluorescence competition. It is filed as binding. As to conditions: 50 mM Tris-HCl pH 7.4, 25°C; 2 μM protein, 2 μM 1-NPN; competitive displacement.
The target in experiment [9] is T4, BdorOBP83a-2. The experiment is described as follows: 1-NPN fluorescence competition. To be noted: 50 mM Tris-HCl pH 7.4, 25°C; 2 μM protein, 2 μM 1-NPN; competitive displacement. It is filed as binding.
Experiment [10] concerns the target T1, BdorOBP56h. The experiment is described as follows: 1-NPN fluorescence competition. It is filed as binding. As to conditions: 50 mM Tris-HCl pH 7.4, 25°C; 2 μM protein, 2 μM 1-NPN; competitive displacement. Here is the method: 1-NPN fluorescence competition on BdorOBP56h | all remaining OBPs could bind to the tested compounds

Molecules are shown by their SMILES.

In the case of `C=CC(O)CCCCC` (stereo not drawn) [1-octen-3-ol], the IC50 at BdorOBP56h [1], on BdorOBP84a-1 [2], at BdorOBP83a-1 [5] and on BdorOBP83a-2 [6] was over 50 µM in each case. The Kd on BdorOBP56h [1], on BdorOBP84a-1 [2], at BdorOBP83a-1 [3] and on BdorOBP83a-2 [4] was over 50 µM throughout.

In the case of `c1ccc2scnc2c1` [Benzothiazole], the IC50 on BdorOBP56h [1], on BdorOBP84a-1 [2], on BdorOBP83a-1 [5] and at BdorOBP83a-2 [6] was over 50 µM each time. For the same compound, the Kd on BdorOBP56h [1], on BdorOBP84a-1 [2], at BdorOBP83a-1 [3] and on BdorOBP83a-2 [4] was over 50 µM throughout.

On to `COc1cc(/C=C/CO)ccc1O` [E-coniferyl alcohol], for which the IC50 on BdorOBP84a-1 [2], on BdorOBP83a-1 [5] and at BdorOBP83a-2 [6] was over 50 µM each time. Further, the Kd at BdorOBP84a-1 [2], on BdorOBP83a-1 [3] and on BdorOBP83a-2 [4] was over 50 µM each time.

As to `CCOC(C)=O` [Ethyl acetate], the IC50 on BdorOBP56h [1], on BdorOBP83a-1 [5] and at BdorOBP83a-2 [6] was over 50 µM in each case. For the same compound, the Kd at BdorOBP56h [1], at BdorOBP83a-1 [3] and at BdorOBP83a-2 [4] was over 50 µM each time.

Regarding `CCOC(=O)c1ccccc1` [Ethyl benzoate], the IC50 at BdorOBP56h [1], on BdorOBP84a-1 [2] and on BdorOBP83a-2 [6] was over 50 µM throughout. Moreover, the Kd on BdorOBP56h [1], at BdorOBP84a-1 [2] and on BdorOBP83a-2 [4] was over 50 µM in each case.

As for `C/C=C(\C)C(=O)OCC` [Ethyl tiglate], the IC50 on BdorOBP56h [1], on BdorOBP83a-1 [5] and on BdorOBP83a-2 [6] was over 50 µM each time. Also, the Kd at BdorOBP56h [1], at BdorOBP83a-1 [3] and at BdorOBP83a-2 [4] was over 50 µM in each case.

Consider `CC1=CCC(=C(C)C)CC1` [Terpinolene], for which the IC50 on BdorOBP56h [1], at BdorOBP84a-1 [2], at BdorOBP83a-1 [5] and on BdorOBP83a-2 [6] was over 50 µM in each case. Besides, the Kd at BdorOBP56h [1], at BdorOBP84a-1 [2], on BdorOBP83a-1 [3] and on BdorOBP83a-2 [4] was over 50 µM throughout.

Regarding `C=CCc1ccc(OC)c(OC)c1` [methyl eugenol, 4-allyl-1,2-dimethoxybenzene], the Kd stood at 79700 µM on BdorOBP84a-1 [7], 2530 µM at BdorOBP83a-1 [8], 34 µM at BdorOBP83a-2 [9] and 578 µM on BdorOBP56h [10]. Besides, the IC50 on BdorOBP56h [1] was over 50 µM; at BdorOBP83a-1 [5], over 50 µM; on BdorOBP83a-2 [6] it was 50.8 µM.

As for `CCCCCC1CCC(=O)O1` (stereo not drawn) [γ-nonanoic lactone], the IC50 on BdorOBP56h [1], at BdorOBP84a-1 [2] and on BdorOBP83a-2 [6] was over 50 µM in each case. Besides, the Kd on BdorOBP56h [1] is over 50 µM; at BdorOBP84a-1 [2], over 50 µM; on BdorOBP83a-1 [8], 85900 µM; on BdorOBP83a-2 [9] it was 52.5 µM.

As to `CCCCC1CCC(=O)O1` (stereo not drawn) [γ-octalactone], the IC50 on BdorOBP56h [1], on BdorOBP84a-1 [2], on BdorOBP83a-1 [5] and at BdorOBP83a-2 [6] was over 50 µM throughout. Besides, the Kd on BdorOBP56h [1] and at BdorOBP84a-1 [2] was over 50 µM each time.

In the case of `CCCCCCCC1CCC(=O)O1` (stereo not drawn) [γ-undecalactone], at BdorOBP84a-1 [2], the IC50 is over 50 µM and the Kd is over 50 µM.

`CCCC1CCCC(=O)O1` (stereo not drawn) [δ-octalactone]: the IC50 on BdorOBP56h [1] and at BdorOBP83a-2 [6] was over 50 µM in each case. In addition, the Kd at BdorOBP56h [1] was over 50 µM; at BdorOBP83a-1 [8], 12700 µM; on BdorOBP83a-2 [9], 54.7 µM.
